The values that follow come from patent US7897602B2, “Indolinone compounds as kinase inhibitors” (Development Center for Biotechnology, priority 2009, dated 2011).

The target in assay [1] is T1, VEGFR2 kinase (Homo sapiens, UniProt P35968).
T1 construct: recombinant N-terminal 6×His-tagged VEGFR2 kinase domain construct expressed by baculovirus; 6xHis (N); made in house
The assay is described as follows: VEGFR2 kinase assay (33P incorporation into Poly(Glu-Tyr)). It counts as biochemical. To be noted: 500 nM test compound; read-out: Inhibition at 500 nM (%) VEGFr-2. The method, boiled down:
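Recombinant baculovirus-expressed N-terminal His6-tagged VEGFR2 kinase domain (6.25 ng) phosphorylated poly(Glu-Tyr) 4:1 with 100 μM ATP plus [33P]-γ-ATP in MOPS pH 7.0, 30 °C, 30 min. Test compound was at 500 nM (4% DMSO). Filter-retained radioactivity relative to DMSO control gave % inhibition.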

Assay [2] deals with T2, Aurora A kinase (Homo sapiens, UniProt O14965).
T2 construct: purchased Upstate
T2 sequence (O14965 1-403): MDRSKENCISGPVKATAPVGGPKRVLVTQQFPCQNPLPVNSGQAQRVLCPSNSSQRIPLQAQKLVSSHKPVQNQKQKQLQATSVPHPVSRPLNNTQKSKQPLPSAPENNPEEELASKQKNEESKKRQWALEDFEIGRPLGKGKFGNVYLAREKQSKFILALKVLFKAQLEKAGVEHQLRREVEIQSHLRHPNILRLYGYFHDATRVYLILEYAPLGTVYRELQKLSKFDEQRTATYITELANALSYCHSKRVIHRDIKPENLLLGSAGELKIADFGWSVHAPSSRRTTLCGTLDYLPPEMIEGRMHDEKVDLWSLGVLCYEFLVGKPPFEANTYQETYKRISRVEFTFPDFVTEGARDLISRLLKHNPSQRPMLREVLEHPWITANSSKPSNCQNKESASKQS
Description: Aurora A kinase assay ([γ-33P]ATP, CHOCKtide substrate). The format is biochemical. Particulars: 1.0 μM test compound. The method, boiled down:
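Recombinant Aurora A (1 ng) or Aurora B (2.5 ng) incubated with test compound, CHOCKtide (1 μg) and [γ-33P]ATP/ATP at 10 μM (Aurora A) or 40 μM (Aurora B), 30 min at 33 °C. Stopped with phosphoric acid; filter-bound 33P counted; IC50 = half-maximal inhibition.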

T1 sequence (P35968 834-1162 limits assumed): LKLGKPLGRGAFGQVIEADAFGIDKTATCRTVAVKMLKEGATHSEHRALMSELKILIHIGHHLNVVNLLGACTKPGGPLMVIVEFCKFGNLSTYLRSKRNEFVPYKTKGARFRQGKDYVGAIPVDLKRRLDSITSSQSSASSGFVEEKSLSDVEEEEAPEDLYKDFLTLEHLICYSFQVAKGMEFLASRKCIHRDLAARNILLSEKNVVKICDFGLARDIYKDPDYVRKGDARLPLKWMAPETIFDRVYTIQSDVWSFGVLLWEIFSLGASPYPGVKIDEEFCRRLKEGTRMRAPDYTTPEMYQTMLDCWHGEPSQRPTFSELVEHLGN

Consider `CCOC(=O)CCc1c(/C=C2\C(=O)Nc3ccc(NC(=O)c4ccc(OC)cc4)cc32)[nH]c2c1C(=O)CCC2` [DCB-70141, (Z)-ethyl 3-(2-((5-(4-methoxybenzamido)-2-oxoindolin-3-ylidene)methyl)-4-oxo-4,5,6,7-tetrahydro-1H-indol-3-yl)propanoate], for which the inhibition (as a rule, the share of the control response that was lost under treatment) at 0.5 µM in assay [1] came to 28.9%. Besides, the inhibition at 1 µM in assay [2] is 9.8%.
As to `COc1ccc(C(=O)Nc2ccc3c(c2)/C(=C/c2[nH]c4c(c2CCC(=O)O)C(=O)CCC4)C(=O)N3)cc1` [DCB-70143, (Z)-3-(2-((5-(4-methoxybenzamido)-2-oxoindolin-3-ylidene)methyl)-4-oxo-4,5,6,7-tetrahydro-1H-indol-3-yl)propanoic acid], in assay [1], the inhibition at 0.5 µM is 38.1%. 1 µM produced 31.8% inhibition in assay [2].
As for `CN(c1cccc(Cl)c1)S(=O)(=O)c1ccc2c(c1)/C(=C/c1[nH]c3c(c1CCC(=O)O)C(=O)CCCC3)C(=O)N2` [DCB-70148, (Z)-3-(2-((5-(N-(3-chlorophenyl)-N-methylsulfamoyl)-2-oxoindolin-3-ylidene)methyl)-4-oxo-1,4,5,6,7,8-hexahydrocyclohepta[b]pyrrol-3-yl)propanoic acid], the inhibition at 0.5 µM in assay [1] is 67.6%. Besides, the inhibition at 1 µM in assay [2] turned out to be 80.7%.
Take `O=C(O)CCc1c(/C=C2\C(=O)Nc3ccc(S(=O)(=O)Nc4ccc(F)c(Cl)c4)cc32)[nH]c2c1C(=O)CCCC2` [DCB-70149, (Z)-3-(2-((5-(N-(3-chloro-4-fluorophenyl)sulfamoyl)-2-oxoindolin-3-ylidene)methyl)-4-oxo-1,4,5,6,7,8-hexahydrocyclohepta[b]pyrrol-3-yl)propanoic acid]: the inhibition at 0.5 µM in assay [1] was 57.5%. Besides, the inhibition at 1 µM in assay [2] came to 77.5%.
